From the NIST ThermoML archive (doi:10.1021/je060271a)

Conditions: 283.15 K, Liquid, Vibrating tube method

CCCCC(=O)OCC(COC(=O)CCCC)(COC(=O)CCCC)COC(=O)CCCC [pentaerythritol tetrapentanoate]
Conditions | mass density [kg/m3]
27222 kPa | 1042.2
27265 kPa | 1042.3
27300 kPa | 1042.3
27336 kPa | 1042.4
27379 kPa | 1042.4
27415 kPa | 1042.3
27450 kPa | 1042.4
27493 kPa | 1042.5
27528 kPa | 1042.4
27564 kPa | 1042.3
27608 kPa | 1042.5
27645 kPa | 1042.6
27681 kPa | 1042.5
27718 kPa | 1042.5
27762 kPa | 1042.5
27798 kPa | 1042.5
27842 kPa | 1042.6
27879 kPa | 1042.6
27916 kPa | 1042.6
27961 kPa | 1042.6
27998 kPa | 1042.8
28035 kPa | 1042.7
28074 kPa | 1042.8
28121 kPa | 1042.7
28158 kPa | 1042.7
28196 kPa | 1042.8
28241 kPa | 1042.8
28279 kPa | 1042.8
28316 kPa | 1042.8
28354 kPa | 1042.8
28400 kPa | 1042.8
28438 kPa | 1043
28477 kPa | 1043
28524 kPa | 1043
28563 kPa | 1043
28610 kPa | 1043
28652 kPa | 1043
28691 kPa | 1043.1
28730 kPa | 1043.1
28770 kPa | 1043
28816 kPa | 1043.1
28856 kPa | 1043.1
28896 kPa | 1043.1
28944 kPa | 1043.2
28984 kPa | 1043.2
29024 kPa | 1043.1
29072 kPa | 1043.3
29112 kPa | 1043.2
29153 kPa | 1043.3
29194 kPa | 1043.3
29244 kPa | 1043.3
29285 kPa | 1043.3
29333 kPa | 1043.4
29375 kPa | 1043.4
29416 kPa | 1043.4
29458 kPa | 1043.4
29508 kPa | 1043.4
29549 kPa | 1043.5
29592 kPa | 1043.4
29642 kPa | 1043.4
29685 kPa | 1043.6
29737 kPa | 1043.6
29782 kPa | 1043.6
29825 kPa | 1043.6
29869 kPa | 1043.7
29926 kPa | 1043.7
29972 kPa | 1043.7
30019 kPa | 1043.7
30074 kPa | 1043.7
30106 kPa | 1043.7
30144 kPa | 1043.9
30175 kPa | 1043.8
30205 kPa | 1043.8
30243 kPa | 1043.8
30275 kPa | 1043.9
30307 kPa | 1043.9
30340 kPa | 1044
30379 kPa | 1043.8
30413 kPa | 1043.9
30453 kPa | 1043.9
30485 kPa | 1044
30517 kPa | 1044
30549 kPa | 1044
30588 kPa | 1043.9
30621 kPa | 1044
30653 kPa | 1044.2
30692 kPa | 1044
30724 kPa | 1044.1
30757 kPa | 1044.1
30795 kPa | 1044.1
30828 kPa | 1044.1
30860 kPa | 1044.2
30899 kPa | 1044.1
30932 kPa | 1044.2
30965 kPa | 1044.2
31004 kPa | 1044.3
31038 kPa | 1044.2
31071 kPa | 1044.3
31110 kPa | 1044.2
31144 kPa | 1044.3
31178 kPa | 1044.4
31218 kPa | 1044.3
31252 kPa | 1044.4
31285 kPa | 1044.5
31325 kPa | 1044.3
31359 kPa | 1044.5
31393 kPa | 1044.4
31427 kPa | 1044.5
31468 kPa | 1044.5
31503 kPa | 1044.5
31544 kPa | 1044.5
31578 kPa | 1044.5
31613 kPa | 1044.6
31650 kPa | 1044.6
31685 kPa | 1044.5
31726 kPa | 1044.7
31762 kPa | 1044.6
31797 kPa | 1044.7
31839 kPa | 1044.7
31874 kPa | 1044.7
31909 kPa | 1044.7
31951 kPa | 1044.8
31987 kPa | 1044.8
32023 kPa | 1044.7
32066 kPa | 1044.8
32103 kPa | 1044.7
32141 kPa | 1044.8
32177 kPa | 1044.8
32214 kPa | 1044.9
32257 kPa | 1044.9
32294 kPa | 1044.9
32337 kPa | 1044.8
32373 kPa | 1045.1
32410 kPa | 1044.9
32447 kPa | 1044.9
32491 kPa | 1045
32528 kPa | 1045
32572 kPa | 1045
32609 kPa | 1045.1
32647 kPa | 1045.2
32691 kPa | 1045.2
32728 kPa | 1045.1
32766 kPa | 1045.2
32804 kPa | 1045.1
32850 kPa | 1045.1
32887 kPa | 1045.2
32925 kPa | 1045.2
32971 kPa | 1045.2
33008 kPa | 1045.2
33055 kPa | 1045.3
33093 kPa | 1045.2
33133 kPa | 1045.3
33172 kPa | 1045.3
33218 kPa | 1045.3
33258 kPa | 1045.4
33297 kPa | 1045.4
33344 kPa | 1045.4
33383 kPa | 1045.5
33430 kPa | 1045.5
33471 kPa | 1045.4
